Here are results for 19 compounds from patent publication US20250179088A9 (ZYMEWORKS BC INC., priority 2020, published 2025).

Bounds are passed on as bounds.

One experiment concerns the target T1, TLR7 (Homo sapiens, UniProt Q9NYK1).
T1 sequence (Q9NYK1 27-1049): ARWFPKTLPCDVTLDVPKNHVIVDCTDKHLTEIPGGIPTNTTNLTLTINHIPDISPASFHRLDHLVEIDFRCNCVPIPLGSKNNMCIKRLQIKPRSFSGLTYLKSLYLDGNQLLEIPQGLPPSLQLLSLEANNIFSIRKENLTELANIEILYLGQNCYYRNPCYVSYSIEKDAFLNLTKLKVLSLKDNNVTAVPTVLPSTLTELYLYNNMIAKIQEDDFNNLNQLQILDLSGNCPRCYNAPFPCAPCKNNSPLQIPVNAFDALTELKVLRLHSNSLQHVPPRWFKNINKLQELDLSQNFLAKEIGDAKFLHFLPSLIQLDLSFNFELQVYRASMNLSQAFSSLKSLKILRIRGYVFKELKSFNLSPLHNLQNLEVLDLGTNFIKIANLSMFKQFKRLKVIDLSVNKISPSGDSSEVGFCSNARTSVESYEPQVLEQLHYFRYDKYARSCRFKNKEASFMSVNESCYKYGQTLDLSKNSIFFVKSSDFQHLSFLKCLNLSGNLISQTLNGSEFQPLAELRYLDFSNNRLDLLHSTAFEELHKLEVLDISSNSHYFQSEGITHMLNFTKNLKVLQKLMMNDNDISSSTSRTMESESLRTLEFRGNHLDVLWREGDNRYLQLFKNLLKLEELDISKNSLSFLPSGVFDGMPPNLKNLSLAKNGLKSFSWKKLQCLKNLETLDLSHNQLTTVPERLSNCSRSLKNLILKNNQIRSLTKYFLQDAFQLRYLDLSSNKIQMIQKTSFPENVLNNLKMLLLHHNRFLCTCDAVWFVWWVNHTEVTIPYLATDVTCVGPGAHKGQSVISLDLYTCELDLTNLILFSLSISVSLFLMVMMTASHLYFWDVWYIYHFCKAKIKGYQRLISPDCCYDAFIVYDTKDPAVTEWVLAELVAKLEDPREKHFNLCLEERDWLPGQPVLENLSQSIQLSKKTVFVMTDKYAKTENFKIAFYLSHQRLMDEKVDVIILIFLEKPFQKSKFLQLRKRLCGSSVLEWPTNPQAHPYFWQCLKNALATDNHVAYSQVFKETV
The experiment can be described thus: Reporter gene assay, HEK-Blue TLR7 reporter cells (SEAP). (In general: Reporter assays use an easily measured gene product as a stand-in for the process of interest.)

The next experiment concerns the target T2, TLR8 (Homo sapiens, UniProt Q9NR97).
T2 sequence (Q9NR97 27-1041): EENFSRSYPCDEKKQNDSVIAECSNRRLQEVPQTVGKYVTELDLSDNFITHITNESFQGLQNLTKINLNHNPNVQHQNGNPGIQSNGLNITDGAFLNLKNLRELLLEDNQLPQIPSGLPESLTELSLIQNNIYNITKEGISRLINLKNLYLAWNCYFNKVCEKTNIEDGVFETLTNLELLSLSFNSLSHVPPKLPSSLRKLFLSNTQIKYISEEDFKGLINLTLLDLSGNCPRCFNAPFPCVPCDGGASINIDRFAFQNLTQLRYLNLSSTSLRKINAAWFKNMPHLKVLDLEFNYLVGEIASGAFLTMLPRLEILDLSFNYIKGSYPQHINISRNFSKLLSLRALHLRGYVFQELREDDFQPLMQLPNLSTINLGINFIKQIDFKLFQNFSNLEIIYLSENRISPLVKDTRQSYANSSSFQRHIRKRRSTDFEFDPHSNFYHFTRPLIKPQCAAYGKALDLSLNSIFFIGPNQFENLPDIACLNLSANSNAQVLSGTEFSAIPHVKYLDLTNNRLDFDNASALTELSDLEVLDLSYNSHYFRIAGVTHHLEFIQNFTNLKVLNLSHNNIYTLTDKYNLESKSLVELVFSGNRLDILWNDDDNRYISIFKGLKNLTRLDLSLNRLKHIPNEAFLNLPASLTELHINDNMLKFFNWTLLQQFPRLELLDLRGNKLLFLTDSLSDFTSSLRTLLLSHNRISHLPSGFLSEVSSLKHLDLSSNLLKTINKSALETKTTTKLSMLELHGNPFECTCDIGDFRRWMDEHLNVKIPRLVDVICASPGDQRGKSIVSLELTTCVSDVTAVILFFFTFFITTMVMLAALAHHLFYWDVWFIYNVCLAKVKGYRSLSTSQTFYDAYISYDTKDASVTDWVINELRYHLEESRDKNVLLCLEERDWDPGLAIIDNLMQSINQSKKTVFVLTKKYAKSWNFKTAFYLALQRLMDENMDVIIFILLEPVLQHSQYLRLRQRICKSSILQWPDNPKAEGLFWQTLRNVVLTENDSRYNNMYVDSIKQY
The experiment can be described thus: Reporter gene assay, HEK-Blue TLR8 reporter cells (SEAP).

A further experiment has as its system PBMCs. The experiment can be described thus: PBMC assay, IL-6 release (HTRF). It counts as cell-based. To be noted: PBMCs from healthy donors, overnight, IL-6 induction by HTRF, average of quadruplicate. A general note: In TR-FRET formats the signal depends on donor and acceptor labels being close together.

Protocol for TLR7: (§1) 3×10^4 HEK-Blue™ TLR7 or 3×10^4 TLR8 reporter cells (InvivoGen, San Diego, CA) were treated with titrated (4-fold) amounts of test compound. […] Cells were incubated overnight at 37° C. and 5% CO2, then absorbance (620 and 655 nm) was read on a Synergy™ H1 microplate reader.
Protocol for TLR8: as §1

By EC50 is commonly meant the midpoint of the concentration-response curve. For the compound `CCCCc1nc2c(N)nc3ccsc3c2n1Cc1ccc(CNCc2ccc(CNC(=O)OC(C)(C)C)cc2)cc1` [Compound 155, tert-butyl (4-(((4-((4-amino-2-butyl-1H-imidazo[4,5-d]thieno[3,2-b]pyridin-1-yl)methyl)benzyl)amino)methyl)benzyl)carbamate], the EC50 at TLR7 is 0.444 µM; at TLR8, more than 1 µM; in the experiment on PBMCs it was 0.11 µM.
The like results for `CCCCc1nc2c(N)nc3ccsc3c2n1CCCCCNCC(C)(C)O` [Compound 180, 1-((5-(4-amino-2-butyl-1H-imidazo[4,5-d]thieno[3,2-b]pyridin-1-yl)pentyl)amino)-2-methylpropan-2-ol] were, in that order, 0.083 µM, more than 1 µM and 0.61 µM.
Taken in the same sequence, the figures for `CCCCc1nc2c(N)nc3ccsc3c2n1Cc1cccc(Cn2ccnc2)c1` [Compound 229, 1-(3-((1H-imidazol-1-yl)methyl)benzyl)-2-butyl-1H-imidazo[4,5-d]thieno[3,2-b]pyridin-4-amine] were 0.42 µM, more than 1 µM and more than 1 µM.
`CCCCc1nc2c(N)nc3ccsc3c2n1Cc1ccc(CN2CCC(CNC(=O)OC(C)(C)C)CC2)cc1` [Compound 263, tert-butyl ((1-(4-((4-amino-2-butyl-1H-imidazo[4,5-d]thieno[3,2-b]pyridin-1-yl)methyl)benzyl)piperidin-4-yl)methyl)carbamate]: the values for the EC50 at TLR7, on TLR8 and in the experiment with PBMCs were 0.053 µM, more than 1 µM and 0.853 µM, respectively.
The like results for `CCCCc1nc2c(N)nc3ccsc3c2n1Cc1ccc(CNc2ccc3c(c2)CCN(C(=O)OC(C)(C)C)C3)cc1` [Compound 261, tert-butyl 6-((4-((4-amino-2-butyl-1H-imidazo[4,5-d]thieno[3,2-b]pyridin-1-yl)methyl)benzyl)amino)-3,4-dihydroisoquinoline-2(1H)-carboxylate] were, in that order, 0.106 µM, more than 1 µM and 0.602 µM.
Taken in the same sequence, the figures for `CCCCc1nc2c(N)nc3ccsc3c2n1CCCCCNCCCCCO` [Compound 178, 5-((5-(4-amino-2-butyl-1H-imidazo[4,5-d]thieno[3,2-b]pyridin-1-yl)pentyl)amino) pentan-1-ol] were 0.037 µM, more than 1 µM and more than 1 µM.
Taken in the same sequence, the figures for `CCCCc1nc2c(N)nc3ccsc3c2n1Cc1ccccc1CNCCCCCO` [Compound 223] were more than 1 µM, more than 1 µM and more than 1 µM.
Consider `CCCCc1nc2c(N)nc3ccsc3c2n1Cc1cccc(CO)c1` [Compound 207, (3-((4-amino-2-butyl-1H-imidazo[4,5-d]thieno[3,2-b]pyridin-1-yl)methyl)phenyl)methanol], for which the EC50 was 0.48 µM on TLR7, more than 1 µM at TLR8 and more than 1 µM in the experiment on PBMCs.
Turning to `CCCCc1nc2c(N)nc3ccsc3c2n1Cc1ccccc1CNCc1ccc(CO)cc1` [Compound 224, (4-(((2-((4-amino-2-butyl-1H-imidazo[4,5-d]thieno[3,2-b]pyridin-1-yl)methyl)benzyl)amino)methyl)phenyl)methanol], the EC50 on TLR7, on TLR8 and in the experiment on PBMCs was more than 1 µM in each case.
`CCCCc1nc2c(N)nc3ccsc3c2n1Cc1cccc(CNCC(C)(C)N2CCOCC2)c1` [Compound 202, 2-butyl-1-(3-(((2-methyl-2-morpholinopropyl)amino)methyl)benzyl)-1H-imidazo[4,5-d]thieno[3,2-b]pyridin-4-amine]: the EC50 came to 0.33 µM at TLR7, 0.95 µM on TLR8 and 0.75 µM with PBMCs.
`CCCCc1nc2c(N)nc3ccsc3c2n1CCCCCO` [Compound 172, 5-(4-amino-2-butyl-1H-imidazo[4,5-d]thieno[3,2-b]pyridin-1-yl)pentan-1-ol]: the EC50 is 0.027 µM on TLR7, more than 1 µM on TLR8 and 0.58 µM in the experiment with PBMCs.
As to `CCCCc1nc2c(N)nc3ccsc3c2n1Cc1ccccc1CNCc1cc[nH]c1` [Compound 220, 1-(2-((((1H-pyrrol-3-yl)methyl)amino)methyl)benzyl)-2-butyl-1H-imidazo[4,5-d]thieno [3,2-b]pyridin-4-amine], the EC50 on TLR7, at TLR8 and with PBMCs was more than 1 µM throughout.
In the case of `CCCCc1nc2c(N)nc3ccsc3c2n1Cc1ccccc1CN1CCN(C(=O)OC(C)(C)C)CC1` [Compound 217, tert-butyl 4-(2-((4-amino-2-butyl-1H-imidazo[4,5-d]thieno[3,2-b]pyridin-1-yl)methyl)benzyl)piperazine-1-carboxylate], the EC50 at TLR7, on TLR8 and with PBMCs was more than 1 µM in each case.
As to `CCCCc1nc2c(N)nc3ccsc3c2n1Cc1nc(CNCc2ccc(CO)cc2)cs1` [Compound 237, (4-((((2-((4-amino-2-butyl-1H-imidazo[4,5-d]thieno[3,2-b]pyridin-1-yl)methyl)thiazol-4-yl)methyl)amino)methyl)phenyl)methanol], the EC50 on TLR7 is 0.19 µM; at TLR8, more than 1 µM; with PBMCs, 0.5 µM.
The like results for `CCCCc1nc2c(N)nc3ccsc3c2n1Cc1cccc(CNCc2cc[nH]c2)c1` [Compound 197, 1-(3-((((1H-pyrrol-3-yl)methyl)amino)methyl)benzyl)-2-butyl-1H-imidazo[4,5-d]thieno [3,2-b]pyridin-4-amine] were, in that order, 0.063 µM, 0.49 µM and 0.29 µM.
In the case of `CCCCc1nc2c(N)nc3ccsc3c2n1CCCCCN1CCNCC1` [Compound 182], the EC50 at TLR7 was 0.024 µM; at TLR8, more than 1 µM; in the experiment on PBMCs it was 0.16 µM.
As for `CCCCc1nc2c(N)nc3ccsc3c2n1Cc1ncc(CNCC(C)(C)O)s1` [Compound 238, 1-(((2-((4-amino-2-butyl-1H-imidazo[4,5-d]thieno[3,2-b]pyridin-1-yl)methyl)thiazol-5-yl)methyl)amino)-2-methylpropan-2-ol], the EC50 at TLR7 was 0.42 µM; at TLR8, more than 1 µM; in the experiment with PBMCs, more than 1 µM.
As to `CCCCc1nc2c(N)nc3ccsc3c2n1Cc1ccc(CN2CCCCC2)cc1` [Compound 151, 2-butyl-1-(4-(piperidin-1-ylmethyl)benzyl)-1H-imidazo[4,5-d]thieno[3,2-b]pyridin-4-amine], the EC50 was 0.0038 µM at TLR7, more than 1 µM on TLR8 and 0.02 µM in the experiment on PBMCs.
Take `CCCCc1nc2c(N)nc3ccsc3c2n1Cc1ccc(CN(CCN(CCCC)CCCC)CCN(CCCC)CCCC)cc1` [Compound 152, N^1-(4-((4-amino-2-butyl-1H-imidazo[4,5-d]thieno[3,2-b]pyridin-1-yl)methyl)benzyl)-N^2,N^2-dibutyl-N^1-(2-(dibutylamino)ethyl)ethane-1,2-diamine]: the EC50 at TLR7 is 0.067 µM; on TLR8, more than 1 µM; in the experiment with PBMCs, 0.059 µM.
